Assay results reported in patent US20250381274A1 (priority 2022, published 2025).
“Also recorded” adds a separate entry of the source. Where two headings read alike, the source gives them in different places.

Experiments:
corneal buttons = system: corneal buttons; set-up: species or system rabbit; settings: for equilibrium modulus change vs paired control (words): Dresden protocol (riboflavin/R5P + UVA); for viscoelastic ratio change vs paired control (words): Dresden protocol (riboflavin/R5P + UVA) vs R5P-exposed-only control
Protocol: • 3 rabbits, (n=8 pairs of 3 mm biopsy punched corneal buttons) • Laser Treatments: • Fidelity II, 1069 nm, 450 mW • Focusing: Marker/spark around, not touching the tissue • Objective: ZEISS 40X, NA=0.1463 • Z: increments 20 μm, 5 layers (several intervals) • 1stlayer 15 μm below surface of focus sparking • XY: 10 μm zigzag grid, 3 mm radius circle • With ˜12 gram compression • Motor speed 2.6 mm/s, full circle treatments: ˜25*5 mins • Sample Preparation: • −3 mm biopsy punch (1BT) • not connected to IV system • Prior to LT: 30 mins in 20% w/w Dextran 500 in PBS • 30 mins in 20% w/w ribose in DPBS (˜1.7M) • Post LT: Trypan blue is used to mark endothelium side • Imaged on the same day in DPBS • Overnight storage in DPBS in 4C fridge • 3 hrs prior to indentation, in room temp PBS • Piuma nano-indentation: • For each cornea button, the average of up to 16 indentations are acquired as
• 3 rabbits, (n=10 pairs of 3 mm biopsy punched corneal buttons) • 3 mm biopsy punch • not connected to IV system • Treatment Protocol-1 hr submerged in 20% w/v Ribose for all samples • 1 hr of UV-A lamp irradiation (control was not under UV) • Post Treatment Trypan blue is used to mark endothelium side • Imaged on the same day in DPBS • Overnight storage in DPBS in 4C fridge • 3 hrs prior to indentation, in room temp PBS • Piuma nano-indentation: • For each cornea button, the average of up to 16 indentations are acquired as representative modulus • The average of the representative modulus are presented in appended FIGS. 1-25.
Nano-Indentation: The corneal buttons were stored in PBS in a 4C fridge overnight for hydration equilibrium. Indentations of 5 μm depth using 29-35 μm diameter spherical indenters were performed on the anterior surface of the cornea buttons to acquire 25-second load-relaxation curves. For each button, the average of up to 16 indentations was used as the representative result. The equilibrium modulus and the viscoelastic ratio, defined as equilibrium modulus over instantaneous modulus, were calculated and compared.
Nanoindentation: Indentations were performed on the anterior surface of the cornea buttons. The equilibrium modulus E∞, instantaneous modulus Eo, and the viscoelastic ratio E∞/Eo, were calculated and compared.
After overnight incubation in PBS at 4C to reach equilibrium hydration, corneal buttons in Group A were allowed to return to room temperature the next morning after the respective treatment days while glued to the bottom of a petri-dish with the anterior surface of the corneal button facing upward. A displacement-controlled indenter (Piuma, Optics 11, Amsterdam, The Netherlands) was used to perform micro-indentations on top of the sample surface submerged in PBS; for each sample, multiple tests were performed following an array of 16 equally spaced (4×4) contact points with a spacing of 100 μm to 150 μm, covering roughly a 0.4×0.4 mm^2 area at the center of each corneal button. A spherical glass probe with a 34 μm radius and 0.2 N/m stiffness was used for samples in Group 1A; another spherical glass probe with a 25.5 μm radius and 4.09 N/m stiffness was used for Group 1B, 1C, 1D, and 2C. The indentation process at each contact point was comprised of three consecutive steps of loading Piezo movement of 5 μm for 2 seconds, holding time of 5 s, and unloading for 2 seconds. The load-relaxation curves obtained after indenting each point were then processed using a viscoelastic model to obtain equilibrium modulus and viscoelastic ratio following a fitting algorithm developed by Oyen.

corneal tissues = experiment: Multiphoton/confocal imaging: autofluorescence and second harmonic generation signal; set-up: species or system rabbit; settings: anterior 100 μm
From the text: • The grey value of the top 100 μm (11 Z-stacks) of the cornea button was summed; • The average of the grey value summations are presented in appended FIGS. 1-25. • […] • The average of the grey value summations and Representative images at ˜600*600*100 μm in x, y, z are presented in appended FIGS. 1-25. The autofluorescence and second harmonic generation (SHG) signals of the corneal tissues in Group A were investigated to reveal the presence of CxLs and structural changes in collagenous ECM after hydration equilibrium in PBS on the same night of individual treatment days. Imaging was performed with a Nikon TI Eclipse inverted microscope using a Ti: Sapphire laser Chameleon Ultra II at 860 nm as the light source and a Nikon Apo LWD 20× objective for focusing. The emission filter was set at the FITC channel (475-650 nm, peak 525 nm) for autofluorescence signal collection and at the DAPI channel (400-600 nm, peak at 457 nm) for SHG signal collection. The XY scanning area for each sample was 635 μm by 635 μm, and Z scanning was 100 μm deep with 10 μm increments (stack of 11 images per sample). The summation of the average grey value processed in Image J at each layer was used as the representative signal strength for each sample.

Substance | equilibrium modulus change (corneal buttons; 20% Dextran + femtosecond laser 755-760 nm ~850 mW, coverslip, without oxygen) | equilibrium modulus change vs paired control (words) (corneal buttons) | viscoelastic ratio change vs paired control (words) (corneal buttons) | viscoelastic ratio change vs paired control (words) (corneal buttons; listed as riboflavin) | equilibrium modulus change vs paired control (words) (corneal buttons; listed as riboflavin) | equilibrium modulus (corneal buttons; Group 1D positive control: Dresden protocol, 0.1% R5P in 20% dextran 500 + UVA) [kPa] | second harmonic generation signal intensity change vs paired control (words) (corneal tissues; Dresden protocol vs R5P exposed control) | autofluorescence signal intensity change vs paired control (words) (corneal tissues; Dresden protocol vs R5P only control)
Dextran | significantly increased the equilibrium modulus of the cornea, but the magnitudes are small | – | – | – | – | – | – | –
riboflavin-5-phosphate [R5P, reference compound] | – | statistically significant differences | more elastic response; also recorded: significantly different time-dependent elastic response | significant increase; also recorded: significantly increased | significantly increased | 100 | increased SHG signal; also recorded: statistically significant increase; also recorded: Statistical significance | increased; also recorded: Statistical significance
